Test system: cytokine and chemokine in bronchoalveolar lavage fluid (BALF)
Test: Ovalbumin (OVA)-sensitized phenol-induced COPD animal model, cytokine and chemokine detection in BALF
Type: in vivo, Female BALB/c ByJNarl mice
Conditions: OVA-sensitized mice exposed to phenol aqueous aerosols for 3 weeks, aerosol inhalation; FIG. 3
Procedure: Four types of aerosol drugs with varying formulation are separately named as drug A, drug B, drug C and NAC. Drug A, drug B and drug C are mainly composed by Houttuynia Cordata Thunb aqueous extract. Drug A (HCA-A) is pure Houttuynia Cordata Thunb aqueous extract. Drug B (HCA-B) is comprised of Houttuynia Cordata Thunb aqueous extract and 500 μM GSH, while Drug C (HCA-C) is comprised of Houttuynia Cordata Thunb aqueous extract, 500 µM GSH and 500 μM BP. NAC is a mucolytic and antioxidant drug already prevalently used in clinic that are known to modulate several pathways of inflammation. NAC is used here as the positive control to compare the efficacy of aerosol formulation of Houttuynia Cordata Thunb in this study.
The OVA-sensitized mice were firstly placed in a custom-built 40 cm×40 cm×30 cm whole-body acrylic exposure chamber, which was filled and continuously replenished with phenol aqueous aerosols (PAA) for 30 minutes, twice per day for three consecutive weeks. PAA were prepared by atomizing 0.25M aqueous phenol solution via a high flow, liquid-feed atomizer (Model 9306, TSI).
Female BALB/c ByJNarl mice (age: 6-8 weeks, weight: 20-25 g) were purchased from National Laboratory Animal Center (NLAC, NARLabs, Taiwan) and approved by the Institutional Animal Care and Use Committee (IACUC) for the experiment of phenol aerosol exposure and inhalation therapy on OVA-treated mice. […]

CC(=O)N[C@@H](CS)C(=O)O [NAC, N-Acetylcysteine]
Interleukin 1α (IL-1α) level in BALF: did not show apparent reduction
